pIC50: −log10 of the molar value. The source made the active and inactive calls.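 How the source made its calls: active means clearly stronger inhibition of the target decarboxylase than of the coupling enzymes tested in parallel without it; inactive means the rest.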

For orientation: pIC50 means the negative decadic logarithm of the IC50, by convention in mol/L.

In one experiment the target is diphosphomevalonate decarboxylase (Streptococcus pneumoniae D39). The experiment can be described thus: diphosphomevalonate decarboxylase inhibition dose curves – biochemical, PK/LDH-coupled NADH fluorescence, hexokinase coupling counter-screen, dose response (AID 550). To be noted: purified DPM-DC. In general terms: A counterscreen serves to expose hits that act by an unwanted route or on another target.
On to `CN(C)[C@@H]1C(=O)C(C(N)=O)=C(O)[C@@]2(O)C(=O)C3=C(O)c4c(O)cccc4[C@@](C)(O)[C@H]3[C@H](O)[C@@H]12`, for which the IC50 result is “inactive”. For the compound `Cc1ccc(C2C3=C(CC(C)(C)CC3=O)N(CCN3CCOCC3)C3=C2C(=O)CC(C)(C)C3)cc1`, the outcome was inactive. Same read-out and setting: then `COC(=O)c1cc2occc2n1CC(=O)Nc1ccc(OC)c(OC)c1OC`, with “inactive”; and `CC1CC(C)CN(CCCNC(=O)Cn2ncc3c(=O)oc4ccccc4c32)C1` (stereo not drawn), with “inactive”; and `Cc1cc(O)c(C=Nc2cccc(Cl)c2)c(=O)o1`, with “inactive”. Consider `CC1=C(C(=O)OCC2CCCO2)C(c2ccncc2)C2=C(CCCC2=O)N1` (stereo not drawn), for which the IC50 result was “inactive”.

Consider `CCOc1cc(NC(=O)c2ccco2)c(OCC)cc1NC(=O)CCc1ccc(OC)cc1`, for which the outcome was inactive. The same measure, in the same setting: then `Cc1cc(=O)cc(C)[nH]1`, with “inactive”. Same read-out and setting: as for `CCCCC(=O)Nc1ccc(C(N)=O)cc1`, the entry is “inactive”; as for `Cc1cnc(SCCc2ccncc2)nc1C`, “inactive”; as for `CCc1nnc(NC(=O)CSc2nnc(COc3ccccc3)n2Cc2ccccc2)s1`, “inactive”.

Take `Cc1cc(C(=O)CSc2nnnn2-c2ccc(Cl)cc2)c(C)n1CC1CCCO1` (stereo not drawn): the outcome was inactive. Still for that read-out and setting: then `Cn1c(-c2ccc(N)cc2)nc2ccccc21`, with “inactive”; and `COc1cc(NC(=O)c2cccs2)c(C(=O)OCC(=O)NCc2ccco2)cc1OC`, with “inactive”; and `COC(=O)CC1SC(=O)NC1=Nc1ccccc1` (stereo not drawn), with “inactive”. On the same count and under the same terms, as for `O=C(CSc1nnnn1Cc1ccccc1)NCCc1ccccc1`, the entry is “inactive”; as for `O=c1c(-c2ccccc2)c(O)c2cccc3c2n1CCC3`, “inactive”. Regarding `O=S(=O)(Nc1ccc(C(F)(F)F)cc1)c1cnc[nH]1`, the outcome was inactive. Same read-out and setting: as for `O=C(O)CCn1nnc(-c2cccs2)n1`, the entry is “inactive”; as for `COc1cc(NC(=O)c2ccco2)c(OC)cc1NC(=O)CCC(=O)Nc1cc(C)ccc1C`, “inactive”.

With `Cc1ccccc1Cc1c(C)nc2c(C(=O)N3CCN(Cc4ccc5c(c4)OCO5)CC3)cnn2c1C`, the outcome was inactive. Still for that read-out and setting: then `O=C(Nc1ccc(N2CCCCC2)cc1)c1cccnc1`, with “inactive”.

On to `Cn1c(SCC(=O)N2CCOCC2)nnc1-c1ccc(NC(=O)c2ccccc2F)cc1`, for which the outcome was inactive. Same read-out and setting: as for `O=C(C1CCCCC1)N1CCC(c2nc3c(nnn3Cc3ccccc3Cl)c(=O)[nH]2)CC1`, the entry is “inactive”; as for `COc1cc(C2C(C#N)=C(C)NC3=C2C(=O)CC(C)(C)C3)cc(OC)c1O` (stereo not drawn), “inactive”; as for `COC(=O)C1=C(C)OC(N)=C(C#N)C1c1cc(OC)c(OCC(N)=O)cc1Cl` (stereo not drawn), “inactive”.

As for `O=C(c1ccc(F)cc1)N1CCC(N2CCCCCC2)CC1`, the result was inactive. Still for that read-out and setting: then `O=C1CCC(C(=O)N(Cc2ccco2)C2(C(=O)NC3CCCC3)CCCCC2)N1` (stereo not drawn), with “inactive”; and `CCCN1C(=O)C(NC(C)=O)c2cc(OC)ccc21` (stereo not drawn), with “inactive”. The same measure, in the same setting: then `COc1ccc(C(O)Cn2c(=N)n(CCCN(C)C)c3ccccc32)cc1` (stereo not drawn), with “inactive”. Regarding `CN(C)Cc1nc2ccccc2c(=O)n1Cc1nc(-c2cc3ccccc3o2)cs1`, the result was inactive. Same read-out and setting: as for `CC(C)C(OC(=O)CN1C(=O)COc2ccccc21)C(=O)NC1CCCC1` (stereo not drawn), the entry is “inactive”.

As for `c1ccc(-c2nc3nonc3c3nc4ccccc4n23)cc1`, the result was inactive. On the same count and under the same terms, as for `CCOc1ccc(C(=O)O)cc1OC`, the entry is “inactive”; as for `O/N=C1\CCC\C1=C/c1ccco1`, “inactive”; as for `Cc1cccc(C)c1NC(=O)C(c1ccccc1)N1CCN(C(=O)c2ccco2)CC1` (stereo not drawn), “inactive”. For `CCCn1c(C)nc2c(c1=O)c1nc3ccccc3nc1n2-c1ccc2c(c1)OCCO2`, the result was inactive. On the same count and under the same terms, as for `COC(=O)c1cc(OC)c(OC)cc1NC(=O)c1oc2ccccc2c1C`, the entry is “inactive”; as for `CN1CC(=O)NC1=NC(=O)C12CC3CC(CC(C3)C1)C2`, “inactive”. Same read-out and setting: as for `COc1cc2c(C#N)c(N3CCN(c4ccccc4OC)CC3)nc(N)c2c(N)n1`, the entry is “inactive”. Still for that read-out and setting: as for `CCOC(=O)c1[nH]c2ccc(OC)cc2c1NC(=O)CN1CCN(c2ccccn2)CC1`, the entry is “inactive”. For `Cc1cc(C)c(S(=O)(=O)NCc2cn3c(C)csc3n2)cc1C`, the outcome was inactive. Still for that read-out and setting: then `O=C(NCc1cccnc1)c1ccc2c(=O)n(CCCN3CCCC3=O)c(=S)[nH]c2c1`, with “inactive”; and `CC(C)CC(=O)NCC(C)NC(=O)CC(C)C` (stereo not drawn), with “inactive”; and `CC(O)COc1ccc(/C(=N/O)c2ccccc2)cc1` (stereo not drawn), with “inactive”.

In the case of `CC1(C)C(C=C(Cl)Cl)C1C(=O)N1CCN(c2ccccc2)CC1` (stereo not drawn), the result was inactive. The same measure, in the same setting: as for `Cc1ccc2oc(=O)c3cnn(CC(=O)NC4CCN(Cc5ccccc5)CC4)c3c2c1`, the entry is “inactive”; as for `CSc1ncc(Cl)c(C(=O)Nc2nnc(SC)s2)n1`, “inactive”; as for `CCC(=O)Nc1nnc(Sc2ccc(N(C)C)cc2)s1`, “inactive”.

Consider `COc1ccc(C(=O)NCc2cn3c(C)csc3n2)cc1OC`, for which the outcome was inactive.

On to `COc1ccc(-c2cc(C(F)(F)F)nc(SCCC(=O)Nc3cc(C)on3)n2)cc1`, for which the result was inactive. Regarding `COc1cc2c(cc1OC)/C(=C/C(=O)N1CCOCC1)NC(C)(C)C2`, the pIC50 is 4.41. Turning to `CC(=O)c1cccc(NC(=O)Nc2cccnc2)c1`, the result was inactive. Same read-out and setting: then `COCCNC(=O)c1cnn2c(C(F)(F)F)cc(-c3ccc4c(c3)OCO4)nc12`, with “inactive”. For the compound `COc1cc(-c2nc3cnccc3n2C)cc(OC)c1OC`, the result was inactive. On the same count and under the same terms, then `CCOC(=O)c1c(Nc2nc(C)c(C(=O)NC)s2)sc(C)c1C`, with “inactive”; and `Cc1nc2oc3c(NCc4ccccn4)ncnc3c2c2c1COC(C)(C)C2`, with “inactive”; and `C/C=C/Cn1c(N(C)Cc2ccccc2)nc2c1c(=O)[nH]c(=O)n2C`, with “inactive”.

Molecular target in another experiment: not listed separately
Described as above. To be noted: purified DPM-DC, measured here: coupling enzymes counter-screen (hexokinase).
`Nc1nc2c(s1)CCc1c-2cnn1-c1ccccc1` showed a pIC50 of 4.68. `CCN(CC)c1ccc(/C=N/n2c(=S)[nH]nc(C)c2=O)cc1`: the pIC50 is 4.40. In the case of `CCn1nc(-c2cccs2)nc2c(=O)n(C)c(=O)nc1-2`, the pIC50 is 5.22. Same read-out and setting: then `O=C(O)c1cccn2c(=O)c3ccccc3nc12`, with 4.27; and `CN(C)[C@@H]1C(=O)C(C(N)=O)=C(O)[C@@]2(O)C(=O)C3=C(O)c4c(O)cccc4[C@@](C)(O)[C@H]3[C@H](O)[C@@H]12`, with 3.90. Still for that read-out and setting: then `Clc1cccc(-c2ccc(/C=N/n3cnnc3)o2)c1`, with 2.43; and `O=c1c2ccccc2[se]n1-c1ccccc1`, with 4.42; and `CC(/C=N/n1cnnc1)=C\c1ccco1`, with 2.46.

`CCn1nc(-c2ccccc2)nc2c(=O)n(C)c(=O)nc1-2` showed a pIC50 of 4.87.

As to `COC(=O)Sc1nnc(-c2ccc(Br)cc2)o1`, the pIC50 is 4.71.
